According to ChEMBL document CHEMBL1127287, “Synthesis and FKBP binding of small molecule mimics of the tricarbonyl region of FK506” (Bioorg Med Chem Lett, 1994):

Tests used:
[1] = molecular target: T1, Peptidyl-prolyl cis-trans isomerase FKBP1A (Homo sapiens, UniProt P62942); assay: Percent inhibition towards recombinant FK506 binding protein 12 to determine the FKBP binding property at a concentration of 100 uM
[2] = molecular target: T1, Peptidyl-prolyl cis-trans isomerase FKBP1A; assay: Binding affinity towards recombinant FK506 binding protein 12 to determine the FKBP binding property of the compound

T1 sequence (P62942 whole entry): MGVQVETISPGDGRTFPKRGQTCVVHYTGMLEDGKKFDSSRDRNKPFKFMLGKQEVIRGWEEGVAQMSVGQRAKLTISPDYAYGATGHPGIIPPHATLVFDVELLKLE

SMILES	inhibition [1] [%]	IC50 [2] [µM]
COc1ccc(CCCCOC(=O)[C@@H]2CCCCN2C(=O)C(=O)c2cc(OC)c(OC)c(OC)c2)cc1	90	16
C=C(C(=O)N1CCCC[C@H]1C(=O)OCCCCc1ccc(OC)cc1)c1cc(OC)c(OC)c(OC)c1	39	–
COc1ccc(CCCCOC(=O)[C@@H]2CCCCN2C(=O)C(C)c2cc(OC)c(OC)c(OC)c2)cc1 (stereo not given in full)	47	–
COc1ccc(CCCCOC(=O)[C@@H]2CCCCN2C(=O)Cc2cc(OC)c(OC)c(OC)c2)cc1	52	–
